We go through 14 compounds from ChEMBL document CHEMBL1687934, “The discovery of potent and long-acting oral factor Xa inhibitors with tetrahydroisoquinoline and benzazepine P4 motifs” (Bioorg Med Chem Lett, 2011).

What all share (format): ADME, organism-based
A short description of data set [1]: Volume of distribution at steady state in iv or po dosed Sprague-Dawley rat. The note with it: in vivo, read-out: Vdss.
Data set [2] can be described thus: Plasma clearance in iv or po dosed Sprague-Dawley rat.
Data set [3] is described as follows: Half life in iv or po dosed Sprague-Dawley rat. The conditions noted are these: in vivo.
The nature of data set [4]: Oral bioavailability in Sprague-Dawley rat. The conditions noted are these: in vivo.

Molecules are shown by their SMILES.

By half-life is commonly meant the time in which the quantity being followed falls by half. Low values mean fast loss, high ones slow loss. Turning to `O=C1[C@@H](NS(=O)(=O)/C=C/c2ccc(Cl)s2)CCN1c1ccc2c(c1)CCNC2`, in data set [1], the Vd turned out to be 0.9 L/kg. The compound also displayed a clearance in data set [2] of 3 mL/min/kg. Moreover, the half-life in data set [3] was 3.5 h.
A word on the bioavailability: it is the share of a dose that reaches the circulation, judged against a reference dose that is usually intravenous. Read a high bioavailability as good availability. `O=C1[C@@H](NS(=O)(=O)c2ccc3cc[nH]c3c2)CCN1c1ccc2c(c1)CCNC2`: in data set [4], the bioavailability is under 1%. Moreover, in data set [1], the Vd is 4.1 L/kg. Further, the clearance in data set [2] was 12 mL/min/kg. Also, the half-life in data set [3] is 6.1 h.
For `O=C1[C@@H](NS(=O)(=O)c2ccc3c(Cl)c[nH]c3c2)CCN1c1ccc2c(c1)CCNC2` the same measures were under 1%, 2.9 L/kg, 7.7 mL/min/kg and 6.3 h.
In the case of `O=C1[C@@H](NS(=O)(=O)/C=C/c2ccc(Cl)s2)CCN1c1ccc2c(c1F)CCNC2`, in data set [4], the bioavailability came out at 68%. For the same compound, the Vd in data set [1] was 0.9 L/kg. Further, in data set [2], the clearance worked out at 3 mL/min/kg. The half-life in data set [3] was 3.3 h.
Regarding `O=C1[C@@H](NS(=O)(=O)c2ccc3c(Cl)c[nH]c3c2)CCN1c1ccc2c(c1F)CCNC2`, the bioavailability in data set [4] amounted to 7%. In addition, in data set [1], the Vd turned out to be 1.5 L/kg. For the same compound, the clearance in data set [2] came to 2.7 mL/min/kg. In data set [3], this compound had a half-life of 7.8 h.
For `O=C1[C@@H](NS(=O)(=O)c2ccc3cc(Cl)ccc3c2)CCN1c1ccc2c(c1)CCCNC2` the same measures were 10%, 5.5 L/kg, 6.8 mL/min/kg and 9.7 h.
As to `O=C1[C@@H](NS(=O)(=O)c2ccc3cc(Cl)ccc3c2)CCN1c1ccc2c(c1F)CCNC2`, the Vd in data set [1] was found to be 2.4 L/kg. In addition, in data set [2], the clearance came to 2.1 mL/min/kg. In data set [3], this compound showed a half-life of 6.7 h.
As to `CN[C@@H](C)c1ccc(N2CC[C@H](NS(=O)(=O)c3ccc4cc(Cl)ccc4c3)C2=O)c(F)c1`, in data set [4], the bioavailability was over 10%. The Vd in data set [1] turned out to be 2.4 L/kg. This compound came in with a clearance in data set [2] of 1.6 mL/min/kg. Besides, the half-life in data set [3] is 18 h.
For `O=C1[C@@H](NS(=O)(=O)c2ccc3cc(Cl)ccc3c2)CCN1c1cc2c(cc1F)CNCC2` the same measures were 28%, 1 L/kg, 1.7 mL/min/kg and 7.5 h.
In data set [4], `O=C1[C@@H](NS(=O)(=O)/C=C/c2ccc(Cl)s2)CCN1c1ccc2c(c1)CCCNC2` showed a bioavailability of 45%. Further, in data set [1], the Vd is 2.6 L/kg. The same compound returned a clearance in data set [2] of 7.8 mL/min/kg. Moreover, the half-life in data set [3] is 4.4 h.
In data set [4], `O=C1[C@@H](NS(=O)(=O)c2ccc3c(Cl)c[nH]c3c2)CCN1c1cc2c(cc1F)CNCC2` came in with a bioavailability of 6%. Further, the Vd in data set [1] worked out at 0.5 L/kg. The same compound came in with a clearance in data set [2] of 1.3 mL/min/kg. Further, in data set [3], the half-life is 6.2 h.
For `CN1CCc2cc(N3CC[C@H](NS(=O)(=O)/C=C/c4ccc(Cl)s4)C3=O)ccc2C1` the same measures were 33%, 0.7 L/kg, 26 mL/min/kg and 0.4 h.
For `O=C1[C@@H](NS(=O)(=O)c2ccc3cc(Cl)ccc3c2)CCN1c1ccc2c(c1)CCNC2` the same measures were 24%, 3.6 L/kg, 4 mL/min/kg and 11 h.
For `O=C1[C@@H](NS(=O)(=O)/C=C/c2ccc(Cl)s2)CCN1c1cc2c(cc1F)CNCC2` the same measures were 43%, 0.5 L/kg, 1.4 mL/min/kg and 4.9 h.
